Assay results published in US7138361B2, “Herbicidal heterocycles” (E. I. du Pont de Nemours and Company, priority 2000, dated 2006).

Experiments:
Format in all cases: in vivo
[1] = test system: Surinam grass (Brachiaria decumbens); assay: Test B preemergence
How it was run: (§1)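 Post-treatment, species sat 13–15 days under greenhouse conditions before visual scoring against controls, 0 (no effect) through 100 (complete control). Application preemergence to sown seeds or postemergence at 1- to 4-leaf stage, using a non-phytotoxic solvent/surfactant formulation.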

[2] = test system: barnyardgrass (Echinochloa crus-galli); assay: Test B preemergence
How it was run: as §1

[3] = test system: cocklebur (Xanthium strumarium); assay: Test B preemergence
How it was run: as §1

[4] = test system: corn (Zea mays); assay: Test B preemergence
How it was run: as §1

[5] = test system: crabgrass (Digitaria sanguinalis); assay: Test B preemergence
How it was run: as §1

[6] = test system: giant foxtail (Setaria faberii); assay: Test B preemergence
How it was run: as §1

[7] = test system: morning glory (Ipomoea hederacea); assay: Test B preemergence
How it was run: as §1

[8] = test system: pigweed (Amaranthus retroflexus); assay: Test B preemergence
How it was run: as §1

[9] = test system: rice (Oryza saliva); assay: Test B preemergence
How it was run: as §1

[10] = test system: velvetleaf (Abutilon theophrasti); assay: Test B preemergence
How it was run: as §1

[11] = test system: Surinam grass (Brachiaria decumbens); assay: Test C preemergence
Text: (§2) Seeds of plant species selected from bermudagrass (Cynodon dactylon), Surinam grass (Brachiaria decumbens), cocklebur (Xanthium strumarium), corn (Zea mays), crabgrass (Digitaria sanguinalis), woolly cupgrass (Eriochloa villosa), giant foxtail (Setaria faberii), goosegrass (Eleusine indica), johnsongrass (Sorghum halepense), kochia (Kochia scoparia), lambsquarters (Chenopodium album), morningglory (Ipomoea hederacea), yellow nutsedge (Cyperus esculentus), pigweed (Amaranthus retroflexus), common ragweed (Ambrosia elatior), soybean (Glycine max) and velvetleaf (Abutilon theophrasti) were planted and treated preemergence with test chemicals formulated in a non-phytotoxic solvent mixture which included a surfactant.
(§3) At the same time, plants selected from these crop and weed species and also winter barley (Hordeum vulgare), blackgrass (Alopecurus myosuroides), canary grass (Phalaris minor), chickweed (Stellaria media), downy brome (Bromus tectorum), green foxtail (Setaria viridis), Italian ryegrass (Lolium multiflorum), wheat (Triticum aestivum), wild oat (Avena fatua) and windgrass (Apera spica-venti) were treated with postemergence applications of some of the test chemicals formulated in the same manner. Plants ranged in height from 2 to 18 cm (1- to 4-leaf stage) for postemergence treatments. Plant species in the flooded paddy test consisted of rice (Oryza saliva), smallflower flatsedge (Cyperus difformis), duck salad (Heteranthera limosa) and barnyardgrass (Echinochloa crus-galli) grown to the 2-leaf stage for testing. Treated plants and controls were maintained in a greenhouse for 12 to 14 days, after which time all species were compared to controls and visually evaluated. Plant response ratings, summarized in Table C, are based on a scale of 0 to 100 where 0 is no effect and 100 is complete control. A dash (-) response means no test result.

[12] = test system: bermudagrass (Cynodon dactylon); assay: Test C preemergence
Text: as §2, §3

[13] = test system: cocklebur (Xanthium strumarium); assay: Test C preemergence
Text: as §2, §3

[14] = test system: crabgrass (Digitaria sanguinalis); assay: Test C preemergence
Text: as §2, §3

[15] = test system: giant foxtail (Setaria faberii); assay: Test C preemergence
Text: as §2, §3

[16] = test system: kochia (Kochia scoparia); assay: Test C preemergence
Text: as §2, §3

[17] = test system: pigweed (Amaranthus retroflexus); assay: Test C preemergence
Text: as §2, §3

[18] = test system: soybean (Glycine max); assay: Test C preemergence
Text: as §2, §3

[19] = test system: woolly cupgrass (Eriochloa villosa); assay: Test C preemergence
Text: as §2, §3

[20] = test system: Sunflower; assay: Test C preemergence; settings: Rate 125 g/ha, scale 0 to 100, 0 no effect, 100 complete control
[21] = test system: lambsquarters (Chenopodium album); assay: Test B preemergence
How it was run: as §1

[22] = Preemergence, Rate 500 g/ha, scale 0 to 100, 0 no effect, 100 complete control
[23] = preemergence, Rate 125 g/ha, scale 0 to 100, 0 no effect, 100 complete control
[24] = Rate 62 g/ha, scale 0 to 100, 0 no effect, 100 complete control
[25] = preemergence, Rate 31 g/ha, scale 0 to 100
[26] = preemergence, Rate 62 g/ha, scale of 0 to 100 where 0 is no effect and 100 is complete control, 13 to 15 days
[27] = preemergence, Rate 250 g/ha, scale 0 to 100, 0 no effect, 100 complete control

CCC(CC)c1ccn(C2SCN(c3cccc(C(F)(F)F)c3)C2=O)n1 (stereo not drawn) [Compound 21]
Plant response rating, Surinam grass [1, 22]: 20
Plant response rating, Surinam grass [1, 23]: 20
Plant response rating, Barnyardgrass [2, 22]: 100
Plant response rating, Barnyardgrass [2, 23]: 60
Plant response rating, Cocklebur [3, 22]: 0
Plant response rating, Corn [4, 22]: 0
Plant response rating, Corn [4, 23]: 0
Plant response rating, Crabgrass [5, 22]: 100
Plant response rating, Crabgrass [5, 23]: 100
Plant response rating, Foxtail, Giant [6, 22]: 100
Plant response rating, Foxtail, Giant [6, 23]: 70
Plant response rating, Morningglory [7, 22]: 100
Plant response rating, Morningglory [7, 23]: 90
Plant response rating, Pigweed [8, 22]: 90
Plant response rating, Pigweed [8, 23]: 0
Plant response rating, Rice [9, 22]: 0
Plant response rating, Rice [9, 23]: 0
Plant response rating, Velvetleaf [10, 22]: 0
Plant response rating, Velvetleaf [10, 23]: 0
Plant response rating, Surinam grass [11, 24]: 0
Plant response rating, Surinam grass [11, 25]: 0
Plant response rating, Surinam grass [11, 23]: 30
Plant response rating, Bermudagrass [12, 24]: 100
Plant response rating, Bermudagrass [12, 25]: 60
Plant response rating, Bermudagrass [12, 23]: 100
Plant response rating, Cocklebur [13, 24]: 0
Plant response rating, Cocklebur [13, 25]: 0
Plant response rating, Cocklebur [13, 23]: 0
Plant response rating, Crabgrass [14, 24]: 90
Plant response rating, Crabgrass [14, 25]: 90
Plant response rating, Crabgrass [14, 23]: 100
Plant response rating, Foxtail, Giant [15, 24]: 80
Plant response rating, Foxtail, Giant [15, 25]: 0
Plant response rating, Foxtail, Giant [15, 23]: 90
Plant response rating, Kochia [16, 24]: 90
Plant response rating, Kochia [16, 25]: 90
Plant response rating, Kochia [16, 23]: 90
Plant response rating, Pigweed [17, 24]: 80
Plant response rating, Pigweed [17, 25]: 30
Plant response rating, Pigweed [17, 23]: 100
Plant response rating, Soybean [18, 24]: 40
Plant response rating, Soybean [18, 25]: 30
Plant response rating, Soybean [18, 23]: 80
Plant response rating, Cupgrass, Woolly [19, 24]: 80
Plant response rating, Cupgrass, Woolly [19, 25]: 40
Plant response rating, Cupgrass, Woolly [19, 23]: 80
Plant response rating, Sunflower [20]: 70

COc1cc(N2CCC(n3ccc(C(C)(C)C)n3)C2=O)ccc1C (stereo not drawn) [Compound 42]
Plant response rating, Surinam grass [1, 22]: 100
Plant response rating, Surinam grass [1, 23]: 90
Plant response rating, Barnyardgrass [2, 22]: 100
Plant response rating, Barnyardgrass [2, 23]: 100
Plant response rating, Cocklebur [3, 22]: 70
Plant response rating, Cocklebur [3, 23]: 0
Plant response rating, Corn [4, 22]: 20
Plant response rating, Corn [4, 23]: 20
Plant response rating, Crabgrass [5, 22]: 100
Plant response rating, Crabgrass [5, 23]: 100
Plant response rating, Foxtail, Giant [6, 22]: 100
Plant response rating, Foxtail, Giant [6, 23]: 100
Plant response rating, Lambsquarters [21, 22]: 100
Plant response rating, Lambsquarters [21, 23]: 100
Plant response rating, Morningglory [7, 22]: 100
Plant response rating, Pigweed [8, 22]: 100
Plant response rating, Rice [9, 22]: 100
Plant response rating, Velvetleaf [10, 22]: 90
Plant response rating, Surinam grass [11, 24]: 70
Plant response rating, Surinam grass [11, 25]: 0
Plant response rating, Surinam grass [11, 23]: 90
Plant response rating, Crabgrass [14, 24]: 90
Plant response rating, Crabgrass [14, 25]: 40
Plant response rating, Crabgrass [14, 23]: 100
Plant response rating, Foxtail, Giant [15, 24]: 50
Plant response rating, Foxtail, Giant [15, 25]: 30
Plant response rating, Foxtail, Giant [15, 23]: 100
Plant response rating, Kochia [16, 24]: 50
Plant response rating, Kochia [16, 25]: 20
Plant response rating, Kochia [16, 23]: 100
Plant response rating, Pigweed [17, 24]: 60
Plant response rating, Pigweed [17, 25]: 0
Plant response rating, Pigweed [17, 23]: 100
Plant response rating, Soybean [18, 24]: 50
Plant response rating, Soybean [18, 25]: 20
Plant response rating, Soybean [18, 23]: 50
Plant response rating, Cupgrass, Woolly [19, 24]: 20
Plant response rating, Cupgrass, Woolly [19, 25]: 0
Plant response rating, Cupgrass, Woolly [19, 23]: 100

CC(C)(C)c1ccn(C2OCN(c3cccc(C(F)(F)F)c3)C2=O)n1 (stereo not drawn) [compound 9]
Plant response rating, Surinam grass [1, 26]: 0
Plant response rating, Surinam grass [1, 27]: 70
Plant response rating, Barnyardgrass [2, 26]: 0
Plant response rating, Barnyardgrass [2, 27]: 60
Plant response rating, Cocklebur [3, 26]: 0
Plant response rating, Cocklebur [3, 27]: 0
Plant response rating, Corn [4, 26]: 0
Plant response rating, Corn [4, 27]: 0
Plant response rating, Crabgrass [5, 26]: 0
Plant response rating, Crabgrass [5, 27]: 100
Plant response rating, Foxtail, Giant [6, 26]: 30
Plant response rating, Foxtail, Giant [6, 27]: 90
Plant response rating, Lambsquarters [21, 26]: 90
Plant response rating, Lambsquarters [21, 27]: 100
Plant response rating, Morningglory [7, 26]: 0
Plant response rating, Morningglory [7, 27]: 0
Plant response rating, Pigweed [8, 26]: 80
Plant response rating, Pigweed [8, 27]: 100
Plant response rating, Rice [9, 26]: 0
Plant response rating, Rice [9, 27]: 0
Plant response rating, Velvetleaf [10, 26]: 0
Plant response rating, Velvetleaf [10, 27]: 0
